Measured values as given in the supplement of paper PMC10307832.

Tests used:
Assay in all cases: relative viability (nuclei count vs DMSO), 5 days (fraction); higher = more cells survive
201T = tested on: 201T
Summary of the method: (§1)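 Five library-drug doses in √10 steps were combined with a fixed anchor-drug dose, or a single drug was given alone, by pin tool to lung cancer cell lines in 1536-well plates the day after seeding. Nuclei were stained and counted after 5 days. Relative viability is the nuclei count in treated wells over that in vehicle wells, taken as the median of duplicate plates.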

ABC-1 = tested on: ABC-1
Summary of the method: as §1

BEN = tested on: BEN
Summary of the method: as §1

CAL-12T = tested on: CAL-12T
Summary of the method: as §1

EKVX = tested on: EKVX
Summary of the method: as §1

HARA = tested on: HARA
Summary of the method: as §1

HCC-366 = tested on: HCC-366
Summary of the method: as §1

LK-2 = tested on: LK-2
Summary of the method: as §1

LU99A = tested on: LU99A
Summary of the method: as §1

NCI-H1437 = tested on: NCI-H1437
Summary of the method: as §1

NCI-H1666 = tested on: NCI-H1666
Summary of the method: as §1

NCI-H2170 = tested on: NCI-H2170
Summary of the method: as §1

NCI-H3122 = tested on: NCI-H3122
Summary of the method: as §1

NCI-H441 = tested on: NCI-H441
Summary of the method: as §1

NCI-H727 = tested on: NCI-H727
Summary of the method: as §1

NCI-H838 = tested on: NCI-H838
Summary of the method: as §1

PC-14 = tested on: PC-14
Summary of the method: as §1

SW 900 = tested on: SW 900
Summary of the method: as §1

**Q.** `O=C(O)c1ccc(-c2c[nH]c3ncc(-c4ccccc4)cc23)cc1C1CCCC1` + NC(=O)Nc1cc(-c2cccc(F)c2)sc1C(=O)N[C@H]1CCCNC1 [AZD7762] (partner 0.2 µM) was tested. Which relative viability (201T; first compound 0.04 µM) did it give?
**A.** Its relative viability is 0.599.

**Q.** What about the relative viability (201T; first compound 0.1265 µM) of the same compound?
**A.** Its relative viability is 0.654.

**Q.** And the relative viability (201T; first compound 0.4 µM)?
**A.** Its relative viability is 0.664.

**Q.** What about the relative viability (201T; first compound 1.265 µM) of the same compound?
**A.** The relative viability was 0.663.

**Q.** What about the relative viability (ABC-1; first compound 0.04 µM) of the same compound?
**A.** The relative viability was 0.726.

**Q.** What about the relative viability (ABC-1; first compound 0.1265 µM) of the same compound?
**A.** The relative viability was 0.965.

**Q.** What about the relative viability (ABC-1; first compound 0.4 µM) of the same compound?
**A.** Its relative viability is 0.89.

**Q.** And the relative viability (ABC-1; first compound 1.265 µM)?
**A.** The relative viability was 0.837.

**Q.** And the relative viability (BEN; first compound 0.04 µM)?
**A.** The relative viability was 0.529.

**Q.** What about the relative viability (BEN; first compound 0.1265 µM) of the same compound?
**A.** Its relative viability is 0.775.

**Q.** What about the relative viability (BEN; first compound 0.4 µM) of the same compound?
**A.** Its relative viability is 0.698.

**Q.** What about the relative viability (BEN; first compound 1.265 µM) of the same compound?
**A.** Its relative viability is 0.771.

**Q.** What about the relative viability (CAL-12T; first compound 0.04 µM) of the same compound?
**A.** Its relative viability is 0.632.

**Q.** What about the relative viability (CAL-12T; first compound 0.1265 µM) of the same compound?
**A.** Its relative viability is 0.698.

**Q.** What about the relative viability (CAL-12T; first compound 0.4 µM) of the same compound?
**A.** The relative viability was 0.629.

**Q.** What about the relative viability (CAL-12T; first compound 1.265 µM) of the same compound?
**A.** Its relative viability is 0.671.

**Q.** What about the relative viability (EKVX; first compound 0.04 µM) of the same compound?
**A.** The relative viability was 0.679.

**Q.** And the relative viability (EKVX; first compound 0.1265 µM)?
**A.** Its relative viability is 0.818.

**Q.** And the relative viability (EKVX; first compound 0.4 µM)?
**A.** The relative viability was 0.888.

**Q.** What about the relative viability (EKVX; first compound 1.265 µM) of the same compound?
**A.** Its relative viability is 0.593.

**Q.** What about the relative viability (HARA; first compound 0.04 µM) of the same compound?
**A.** The relative viability was 0.4.

**Q.** What about the relative viability (HARA; first compound 0.1265 µM) of the same compound?
**A.** The relative viability was 0.596.

**Q.** What about the relative viability (HARA; first compound 0.4 µM) of the same compound?
**A.** Its relative viability is 0.385.

**Q.** And the relative viability (HARA; first compound 1.265 µM)?
**A.** Its relative viability is 0.554.

**Q.** And the relative viability (HCC-366; first compound 0.04 µM)?
**A.** The relative viability was 0.274.

**Q.** And the relative viability (HCC-366; first compound 0.1265 µM)?
**A.** Its relative viability is 0.413.

**Q.** What about the relative viability (HCC-366; first compound 0.4 µM) of the same compound?
**A.** Its relative viability is 0.399.

**Q.** And the relative viability (HCC-366; first compound 1.265 µM)?
**A.** The relative viability was 0.43.

**Q.** What about the relative viability (LK-2; first compound 0.04 µM) of the same compound?
**A.** The relative viability was 0.446.

**Q.** What about the relative viability (LK-2; first compound 0.1265 µM) of the same compound?
**A.** The relative viability was 0.614.

**Q.** And the relative viability (LK-2; first compound 0.4 µM)?
**A.** Its relative viability is 0.373.

**Q.** What about the relative viability (LK-2; first compound 1.265 µM) of the same compound?
**A.** The relative viability was 0.49.

**Q.** What about the relative viability (LU99A; first compound 0.04 µM) of the same compound?
**A.** The relative viability was 0.486.

**Q.** And the relative viability (LU99A; first compound 0.1265 µM)?
**A.** The relative viability was 0.522.

**Q.** And the relative viability (LU99A; first compound 0.4 µM)?
**A.** Its relative viability is 0.421.

**Q.** And the relative viability (LU99A; first compound 1.265 µM)?
**A.** Its relative viability is 0.411.

**Q.** And the relative viability (NCI-H1437; first compound 0.04 µM)?
**A.** The relative viability was 1.15.

**Q.** What about the relative viability (NCI-H1437; first compound 0.1265 µM) of the same compound?
**A.** Its relative viability is 1.21.

**Q.** What about the relative viability (NCI-H1437; first compound 0.4 µM) of the same compound?
**A.** The relative viability was 1.15.

**Q.** What about the relative viability (NCI-H1437; first compound 1.265 µM) of the same compound?
**A.** The relative viability was 0.934.

**Q.** And the relative viability (NCI-H1666; first compound 0.04 µM)?
**A.** Its relative viability is 0.798.

**Q.** What about the relative viability (NCI-H1666; first compound 0.1265 µM) of the same compound?
**A.** The relative viability was 1.

**Q.** What about the relative viability (NCI-H1666; first compound 0.4 µM) of the same compound?
**A.** Its relative viability is 0.875.

**Q.** And the relative viability (NCI-H1666; first compound 1.265 µM)?
**A.** The relative viability was 0.728.

**Q.** What about the relative viability (NCI-H2170; first compound 0.04 µM) of the same compound?
**A.** The relative viability was 0.933.

**Q.** What about the relative viability (NCI-H2170; first compound 0.1265 µM) of the same compound?
**A.** Its relative viability is 1.03.

**Q.** What about the relative viability (NCI-H2170; first compound 0.4 µM) of the same compound?
**A.** The relative viability was 0.895.

**Q.** What about the relative viability (NCI-H2170; first compound 1.265 µM) of the same compound?
**A.** The relative viability was 0.82.

**Q.** What about the relative viability (NCI-H3122; first compound 0.04 µM) of the same compound?
**A.** Its relative viability is 0.97.

**Q.** What about the relative viability (NCI-H3122; first compound 0.1265 µM) of the same compound?
**A.** The relative viability was 1.04.

**Q.** What about the relative viability (NCI-H3122; first compound 0.4 µM) of the same compound?
**A.** The relative viability was 1.05.

**Q.** And the relative viability (NCI-H3122; first compound 1.265 µM)?
**A.** Its relative viability is 0.999.

**Q.** What about the relative viability (NCI-H441; first compound 0.04 µM) of the same compound?
**A.** Its relative viability is 1.01.

**Q.** What about the relative viability (NCI-H441; first compound 0.1265 µM) of the same compound?
**A.** Its relative viability is 1.23.

**Q.** And the relative viability (NCI-H441; first compound 0.4 µM)?
**A.** The relative viability was 1.11.

**Q.** And the relative viability (NCI-H441; first compound 1.265 µM)?
**A.** The relative viability was 1.14.

**Q.** What about the relative viability (NCI-H727; first compound 0.04 µM) of the same compound?
**A.** Its relative viability is 0.459.

**Q.** What about the relative viability (NCI-H727; first compound 0.1265 µM) of the same compound?
**A.** Its relative viability is 0.672.

**Q.** What about the relative viability (NCI-H727; first compound 0.4 µM) of the same compound?
**A.** Its relative viability is 0.679.

**Q.** And the relative viability (NCI-H727; first compound 1.265 µM)?
**A.** Its relative viability is 0.612.

**Q.** And the relative viability (NCI-H838; first compound 0.04 µM)?
**A.** The relative viability was 0.978.

**Q.** What about the relative viability (NCI-H838; first compound 0.1265 µM) of the same compound?
**A.** The relative viability was 1.07.

**Q.** And the relative viability (NCI-H838; first compound 0.4 µM)?
**A.** The relative viability was 0.992.

**Q.** And the relative viability (NCI-H838; first compound 1.265 µM)?
**A.** The relative viability was 0.92.

**Q.** And the relative viability (PC-14; first compound 0.04 µM)?
**A.** Its relative viability is 0.335.

**Q.** And the relative viability (PC-14; first compound 0.1265 µM)?
**A.** The relative viability was 0.414.

**Q.** And the relative viability (PC-14; first compound 0.4 µM)?
**A.** Its relative viability is 0.407.

**Q.** What about the relative viability (PC-14; first compound 1.265 µM) of the same compound?
**A.** Its relative viability is 0.39.

**Q.** And the relative viability (SW 900; first compound 0.04 µM)?
**A.** Its relative viability is 0.635.

**Q.** What about the relative viability (SW 900; first compound 0.1265 µM) of the same compound?
**A.** Its relative viability is 0.648.

**Q.** And the relative viability (SW 900; first compound 0.4 µM)?
**A.** The relative viability was 0.755.

**Q.** What about the relative viability (SW 900; first compound 1.265 µM) of the same compound?
**A.** The relative viability was 0.598.
